In publication PMC11882969 (Nature Communications, 2025):
Several values for one entry are separate records, joined by “and”; a condition that tells them apart may be missing. Equal entries are not always repeated.

Target: hCB1 (Homo sapiens, UniProt P21554)
Test: bioSensAll ebBRET signaling profiling, hCB1
Format: cell-based
Design: host or cells: HEK293SL cells, transient PEI transfection
Settings: for Gi1 hCB1 response: Gi1 biosensor; for Gi1 hCB1 / GoB hCB1: single replicate values, FigS6a
[1] = Log [Compound] (M) -13, individual replicate values

Chain of hCB1 (P21554 whole entry): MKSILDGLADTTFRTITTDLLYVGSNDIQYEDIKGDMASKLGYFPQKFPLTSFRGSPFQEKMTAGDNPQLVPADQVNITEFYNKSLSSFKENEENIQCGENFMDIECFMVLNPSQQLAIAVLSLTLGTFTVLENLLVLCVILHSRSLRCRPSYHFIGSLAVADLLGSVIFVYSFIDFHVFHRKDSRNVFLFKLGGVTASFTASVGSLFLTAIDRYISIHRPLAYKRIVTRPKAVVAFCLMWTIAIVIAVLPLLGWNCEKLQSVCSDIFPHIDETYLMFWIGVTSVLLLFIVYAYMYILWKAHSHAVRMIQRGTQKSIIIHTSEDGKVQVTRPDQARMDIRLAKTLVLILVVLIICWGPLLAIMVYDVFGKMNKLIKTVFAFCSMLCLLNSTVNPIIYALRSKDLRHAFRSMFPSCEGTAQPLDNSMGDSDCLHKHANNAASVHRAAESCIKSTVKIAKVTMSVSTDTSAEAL

Cc1cc(C(=O)N2CC3(CCC3)[C@@H]2[C@@H]2CCCO2)nn1-c1cccc(C(F)(F)F)c1 [‘3386]
Gi1 hCB1 response (Log [Compound] (M) -4.22186): -31.6589 | Gi1 hCB1 response (Log [Compound] (M) -4.63927): -26.0187 | Gi1 hCB1 response (Log [Compound] (M) -5.47381): -11.5379 | Gi1 hCB1 response (Log [Compound] (M) -5.89285): -4.6 | Gi1 hCB1 response (Log [Compound] (M) -6.31878): 6.86 | Gi1 hCB1 response (Log [Compound] (M) -6.72585): -4.577 | Gi1 hCB1 response (Log [Compound] (M) -7.14267): -3.682 | Gi1 hCB1 response (Log [Compound] (M) -7.55284): 0.369 | Gi1 hCB1 response (Log [Compound] (M) -8): -1.959 | Gi1 hCB1 response (Log [Compound] (M) -8.22186): -1.847 | Gi1 hCB1 response (Log [Compound] (M) -8.39794): 6.792 | Gi1 hCB1 response (Log [Compound] (M) -8.68787): 5.83 | Gi1 hCB1 response (Log [Compound] (M) -9.15521): -6.435 | Gi1 hCB1 response (Log [Compound] (M) -9.61989): 5.561 | Gi1 hCB1 response (Log [Compound] (M) -10.0969): -3.167 | Gi1 hCB1 response (Log [Compound] (M) -10.5529): 5.808 | Gi1 hCB1 response (Log [Compound] (M) -11.0177): 14.3798 | Gi1 hCB1 response (Log [Compound] (M) -11.4949): 4.331 | Gi1 hCB1 response (Log [Compound] (M) -11.9208): 0.6376 | Gi1 hCB1 response (Log [Compound] (M) -12.3979): 3.01 | Gi1 hCB1 response (Log [Compound] (M) -12.8861): 17.2222 | Gi1 hCB1 response [1]: 0.5257 and -2.921 | Gi1 hCB1 (Log [Compound] (M) -4.22186): -5.415 | GoB hCB1 (Log [Compound] (M) -4.22186): -7.725 | Gi1 hCB1 (Log [Compound] (M) -4.63927): -6.833 | GoB hCB1 (Log [Compound] (M) -4.63927): -8.211 | Gi1 hCB1 (Log [Compound] (M) -5.05788): -4.3047 | GoB hCB1 (Log [Compound] (M) -5.05788): -5.316 | Gi1 hCB1 (Log [Compound] (M) -5.47381): -2.408 | GoB hCB1 (Log [Compound] (M) -5.47381): -3.409 | Gi1 hCB1 (Log [Compound] (M) -5.89285): -1.499 | GoB hCB1 (Log [Compound] (M) -5.89285): -1.485 | Gi1 hCB1 (Log [Compound] (M) -6.31878): 1.292 | GoB hCB1 (Log [Compound] (M) -6.31878): 2.327 | Gi1 hCB1 (Log [Compound] (M) -6.72585): 0.5361 | GoB hCB1 (Log [Compound] (M) -6.72585): 1.033 | Gi1 hCB1 (Log [Compound] (M) -7.14267): 0.4282 | GoB hCB1 (Log [Compound] (M) -7.14267): 0.7269 | Gi1 hCB1 (Log [Compound] (M) -7.55284): 0.9215 | GoB hCB1 (Log [Compound] (M) -7.55284): 3.892 | Gi1 hCB1 (Log [Compound] (M) -8): 0.7057 | GoB hCB1 (Log [Compound] (M) -8): 1.158 | Gi1 hCB1 (Log [Compound] (M) -8.22186): 1.7386 | GoB hCB1 (Log [Compound] (M) -8.22186): -4.075 | Gi1 hCB1 (Log [Compound] (M) -8.39794): -1.406 | GoB hCB1 (Log [Compound] (M) -8.39794): 4.1437 | Gi1 hCB1 (Log [Compound] (M) -8.68787): 1.2761 | GoB hCB1 (Log [Compound] (M) -8.68787): -1.251 | Gi1 hCB1 (Log [Compound] (M) -9.15521): 1.261 | GoB hCB1 (Log [Compound] (M) -9.15521): -3.967 | Gi1 hCB1 (Log [Compound] (M) -9.61989): 1.816 | GoB hCB1 (Log [Compound] (M) -9.61989): -0.8377 | Gi1 hCB1 (Log [Compound] (M) -10.0969): 0.3511 | GoB hCB1 (Log [Compound] (M) -10.0969): 1.158 | Gi1 hCB1 (Log [Compound] (M) -10.5529): 1.014 | GoB hCB1 (Log [Compound] (M) -10.5529): 1.536 | Gi1 hCB1 (Log [Compound] (M) -11.0177): 0.7982 | GoB hCB1 (Log [Compound] (M) -11.0177): 0.4571 | Gi1 hCB1 (Log [Compound] (M) -11.4949): 1.029 | GoB hCB1 (Log [Compound] (M) -11.4949): 2.058 | Gi1 hCB1 (Log [Compound] (M) -11.9208): -0.1422 | GoB hCB1 (Log [Compound] (M) -11.9208): 1.68 | Gi1 hCB1 (Log [Compound] (M) -12.3979): 0.5053 | GoB hCB1 (Log [Compound] (M) -12.3979): 2.184 | Gi1 hCB1 (Log [Compound] (M) -12.8861): -0.04972 | GoB hCB1 (Log [Compound] (M) -12.8861): 1.176 | Gi1 hCB1 (Log [Compound] (M) -13): 2.124 and 3.311 | GoB hCB1 (Log [Compound] (M) -13): 2.399 and 2.327

COc1cccc(C(NC(=O)c2cc(C)n(-c3cccc(C(F)(F)F)c3)n2)c2ccco2)c1 (centres unmarked) [‘1087]
Gi1 hCB1 response (Log [Compound] (M) -4.22186): 111.515 | Gi1 hCB1 response (Log [Compound] (M) -4.63927): -38.2838 | Gi1 hCB1 response (Log [Compound] (M) -5.05788): -49.9669 | Gi1 hCB1 response (Log [Compound] (M) -5.47381): 11.0449 | Gi1 hCB1 response (Log [Compound] (M) -5.89285): -12.478 | Gi1 hCB1 response (Log [Compound] (M) -6.31878): -17.0885 | Gi1 hCB1 response (Log [Compound] (M) -6.72585): -9.994 | Gi1 hCB1 response (Log [Compound] (M) -7.14267): -10.3741 | Gi1 hCB1 response (Log [Compound] (M) -7.55284): 10.754 | Gi1 hCB1 response (Log [Compound] (M) -8): -2.496 | Gi1 hCB1 response (Log [Compound] (M) -8.22186): 59.7022 | Gi1 hCB1 response (Log [Compound] (M) -8.39794): 12.6788 | Gi1 hCB1 response (Log [Compound] (M) -8.68787): -1.377 | Gi1 hCB1 response (Log [Compound] (M) -9.15521): -24.5192 | Gi1 hCB1 response (Log [Compound] (M) -9.61989): 86.3361 | Gi1 hCB1 response (Log [Compound] (M) -10.0969): -14.3804 | Gi1 hCB1 response (Log [Compound] (M) -10.5529): -6.726 | Gi1 hCB1 response (Log [Compound] (M) -11.0177): 6.211 | Gi1 hCB1 response (Log [Compound] (M) -11.4949): 9.702 | Gi1 hCB1 response (Log [Compound] (M) -11.9208): -11.0679 | Gi1 hCB1 response (Log [Compound] (M) -12.3979): -4.555 | Gi1 hCB1 response (Log [Compound] (M) -12.8861): -5.652 | Gi1 hCB1 response [1]: -4.331 and 29.5096 | Gi1 hCB1 (Log [Compound] (M) -4.22186): -6.833 | GoB hCB1 (Log [Compound] (M) -4.22186): -8.4986 | Gi1 hCB1 (Log [Compound] (M) -4.63927): -6.864 | GoB hCB1 (Log [Compound] (M) -4.63927): -10.0272 | Gi1 hCB1 (Log [Compound] (M) -5.05788): -7.357 | GoB hCB1 (Log [Compound] (M) -5.05788): -7.545 | Gi1 hCB1 (Log [Compound] (M) -5.47381): -6.895 | GoB hCB1 (Log [Compound] (M) -5.47381): -9.02 | Gi1 hCB1 (Log [Compound] (M) -5.89285): -4.166 | GoB hCB1 (Log [Compound] (M) -5.89285): -5.891 | Gi1 hCB1 (Log [Compound] (M) -6.31878): -2.0693 | GoB hCB1 (Log [Compound] (M) -6.31878): -3.409 | Gi1 hCB1 (Log [Compound] (M) -6.72585): -1.1443 | GoB hCB1 (Log [Compound] (M) -6.72585): -0.5859 | Gi1 hCB1 (Log [Compound] (M) -7.14267): 2.34 | GoB hCB1 (Log [Compound] (M) -7.14267): -0.6579 | Gi1 hCB1 (Log [Compound] (M) -7.55284): 3.064 | GoB hCB1 (Log [Compound] (M) -7.55284): 2.687 | Gi1 hCB1 (Log [Compound] (M) -8): 2.926 | GoB hCB1 (Log [Compound] (M) -8): 1.8778 | Gi1 hCB1 (Log [Compound] (M) -8.22186): 2.463 | GoB hCB1 (Log [Compound] (M) -8.22186): -2.043 | Gi1 hCB1 (Log [Compound] (M) -8.39794): -1.175 | GoB hCB1 (Log [Compound] (M) -8.39794): 1.572 | Gi1 hCB1 (Log [Compound] (M) -8.68787): 1.6 | GoB hCB1 (Log [Compound] (M) -8.68787): -4.093 | Gi1 hCB1 (Log [Compound] (M) -9.15521): 2.463 | GoB hCB1 (Log [Compound] (M) -9.15521): -0.01046 | Gi1 hCB1 (Log [Compound] (M) -9.61989): 1.8311 | GoB hCB1 (Log [Compound] (M) -9.61989): 0.3672 | Gi1 hCB1 (Log [Compound] (M) -10.0969): 1.353 | GoB hCB1 (Log [Compound] (M) -10.0969): 4.054 | Gi1 hCB1 (Log [Compound] (M) -10.5529): 3.666 | GoB hCB1 (Log [Compound] (M) -10.5529): 3.3884 | Gi1 hCB1 (Log [Compound] (M) -11.0177): 2.525 | GoB hCB1 (Log [Compound] (M) -11.0177): 3.856 | Gi1 hCB1 (Log [Compound] (M) -11.4949): 4.128 | GoB hCB1 (Log [Compound] (M) -11.4949): 2.507 | Gi1 hCB1 (Log [Compound] (M) -11.9208): 3.265 | GoB hCB1 (Log [Compound] (M) -11.9208): 1.033 | Gi1 hCB1 (Log [Compound] (M) -12.3979): 2.386 | GoB hCB1 (Log [Compound] (M) -12.3979): 3.442 | Gi1 hCB1 (Log [Compound] (M) -12.8861): 2.001 | GoB hCB1 (Log [Compound] (M) -12.8861): 2.363 | Gi1 hCB1 (Log [Compound] (M) -13): 2.402 and 0.3203 | GoB hCB1 (Log [Compound] (M) -13): 4.845 and 3.406
